Measured values taken from ChEMBL document CHEMBL1201862, “PubChem BioAssay data set” (2004).
Active and inactive are the calls of the source.

What was measured:
[1] = Trypanosoma cruzi growth suppression in host cells – NIH3T3 host cells, beta-gal luminescence, confirmation (AID 2044); format: functional, cell-based;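 further: intracellular parasites grown in NIH/3T3 mouse fibroblasts as host cells; luminescent beta-galactosidase reporter signal from transgenic T. cruzi replicating inside host cells; inhibitors lower the luminescence signal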
[2] = NIH3T3 cell viability loss – ATP luminescence, mouse fibroblasts, counter-screen, dose response (AID 2010); format: functional, cell-based;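 further: cells exposed to compound for about 90 hours before reading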
[3] = test system: Streptococcus sp. 'group A'; experiment: Streptococcus pyogenes SK(-)GAS viability under kanamycin – luminescence, BacTiterGlo, confirmation, counter-screen for streptokinase expression inhibitor project, dose response (AID 1900); format: functional, organism-based
[4] = molecular target: T1, Streptokinase A (Streptococcus pyogenes serotype M1, UniProt P10520); experiment: viability-normalized secreted streptokinase activity reduction – plasminogen activation absorbance, OD405, dose response (AID 1914); format: functional, Streptococcus pyogenes M1 GAS;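 further: secreted streptokinase activity via plasminogen activation per viability signal from cell pellet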
T1 sequence (P10520 whole entry): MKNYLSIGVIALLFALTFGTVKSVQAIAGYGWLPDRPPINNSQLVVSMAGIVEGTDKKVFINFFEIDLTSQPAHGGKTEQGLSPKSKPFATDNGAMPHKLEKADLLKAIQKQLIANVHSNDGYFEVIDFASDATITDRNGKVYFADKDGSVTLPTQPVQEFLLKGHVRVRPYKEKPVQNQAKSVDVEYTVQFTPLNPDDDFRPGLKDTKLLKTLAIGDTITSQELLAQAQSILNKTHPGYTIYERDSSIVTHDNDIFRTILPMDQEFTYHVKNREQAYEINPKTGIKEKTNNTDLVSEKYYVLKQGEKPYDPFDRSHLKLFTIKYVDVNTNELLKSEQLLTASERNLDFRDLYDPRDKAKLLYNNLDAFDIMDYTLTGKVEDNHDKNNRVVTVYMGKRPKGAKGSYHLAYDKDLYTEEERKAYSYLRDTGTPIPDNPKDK

[5] = test system: Streptococcus; experiment: GAS UMAA2166 growth inhibition – luminescence, BacTiterGlo, counter-screen for streptokinase expression inhibitor project, dose response (AID 1915); format: functional, organism-based;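 further: potency for reduction of bacterial viability or growth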
[6] = molecular target: T2, Rac GTPase-activating protein 1 (Homo sapiens, UniProt Q9H0H5); experiment: blockers of MgcRacGAP-driven Rac1 GTP hydrolysis – biochemical, ADP Hunter fluorescence, primary and confirmatory, confirmation (AID 624330); format: functional
T2 sequence (Q9H0H5 whole entry): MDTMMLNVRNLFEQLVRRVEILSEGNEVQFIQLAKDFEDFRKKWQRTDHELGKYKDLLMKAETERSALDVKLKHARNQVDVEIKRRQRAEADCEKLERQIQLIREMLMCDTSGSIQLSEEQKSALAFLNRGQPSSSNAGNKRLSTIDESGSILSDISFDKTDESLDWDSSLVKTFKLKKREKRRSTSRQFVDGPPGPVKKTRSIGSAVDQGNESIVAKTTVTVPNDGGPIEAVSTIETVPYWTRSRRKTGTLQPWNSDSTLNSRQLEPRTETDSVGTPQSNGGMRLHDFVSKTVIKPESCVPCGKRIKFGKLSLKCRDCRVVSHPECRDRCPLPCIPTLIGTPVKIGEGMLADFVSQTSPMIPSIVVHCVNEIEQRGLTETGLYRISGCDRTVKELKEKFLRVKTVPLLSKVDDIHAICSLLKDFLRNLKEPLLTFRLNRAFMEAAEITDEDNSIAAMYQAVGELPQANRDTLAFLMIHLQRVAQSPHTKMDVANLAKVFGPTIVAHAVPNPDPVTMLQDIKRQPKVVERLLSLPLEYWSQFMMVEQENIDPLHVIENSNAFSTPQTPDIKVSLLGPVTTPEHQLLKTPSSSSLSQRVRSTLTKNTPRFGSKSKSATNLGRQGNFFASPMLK

[7] = molecular target: Cytochrome P450 2C9 (Homo sapiens, UniProt P11712)
[8] = molecular target: T3, Cytochrome P450 1A2 (Homo sapiens, UniProt P05177);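 further: PubChem cytochrome P450 panel assay, CYP1A2 panel member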
T3 sequence (P05177 whole entry): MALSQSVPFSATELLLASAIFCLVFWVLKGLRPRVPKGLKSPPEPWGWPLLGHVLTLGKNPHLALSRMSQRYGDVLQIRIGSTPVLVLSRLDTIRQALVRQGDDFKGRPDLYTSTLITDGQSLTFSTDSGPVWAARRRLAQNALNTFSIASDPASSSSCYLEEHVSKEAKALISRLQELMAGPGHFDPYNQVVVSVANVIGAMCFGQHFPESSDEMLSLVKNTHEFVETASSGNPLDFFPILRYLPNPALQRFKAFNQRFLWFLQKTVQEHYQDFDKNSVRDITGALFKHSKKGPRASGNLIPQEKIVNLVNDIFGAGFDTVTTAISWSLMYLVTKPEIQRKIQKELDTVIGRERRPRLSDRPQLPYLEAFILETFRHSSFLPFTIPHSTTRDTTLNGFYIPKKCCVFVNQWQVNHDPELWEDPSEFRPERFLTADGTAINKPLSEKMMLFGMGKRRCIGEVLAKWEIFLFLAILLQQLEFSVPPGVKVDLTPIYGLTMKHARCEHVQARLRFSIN

[9] = molecular target: Cytochrome P450 2C19 (Homo sapiens, UniProt P33261); experiment: Cytochrome panel assay with activity outcomes. Panel member name: p450-cyp2c19 Compounds with AC50 equal or less than 10 uM are considered active; format: functional
Chain of Cytochrome P450 2C19 (P33261 whole entry): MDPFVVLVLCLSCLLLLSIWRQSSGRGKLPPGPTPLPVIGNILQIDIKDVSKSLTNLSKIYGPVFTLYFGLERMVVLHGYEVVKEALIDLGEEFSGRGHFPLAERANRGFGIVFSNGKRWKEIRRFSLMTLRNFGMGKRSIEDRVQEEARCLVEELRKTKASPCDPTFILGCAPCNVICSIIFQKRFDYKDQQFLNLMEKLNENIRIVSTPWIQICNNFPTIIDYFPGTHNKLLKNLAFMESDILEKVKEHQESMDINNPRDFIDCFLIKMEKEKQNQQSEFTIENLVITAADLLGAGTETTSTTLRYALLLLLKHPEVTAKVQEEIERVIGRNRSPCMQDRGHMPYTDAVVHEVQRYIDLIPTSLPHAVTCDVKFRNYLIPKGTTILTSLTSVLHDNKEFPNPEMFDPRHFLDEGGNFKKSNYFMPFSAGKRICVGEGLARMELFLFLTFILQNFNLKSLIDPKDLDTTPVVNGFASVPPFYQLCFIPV

Chain of Cytochrome P450 2C9 (P11712 whole entry): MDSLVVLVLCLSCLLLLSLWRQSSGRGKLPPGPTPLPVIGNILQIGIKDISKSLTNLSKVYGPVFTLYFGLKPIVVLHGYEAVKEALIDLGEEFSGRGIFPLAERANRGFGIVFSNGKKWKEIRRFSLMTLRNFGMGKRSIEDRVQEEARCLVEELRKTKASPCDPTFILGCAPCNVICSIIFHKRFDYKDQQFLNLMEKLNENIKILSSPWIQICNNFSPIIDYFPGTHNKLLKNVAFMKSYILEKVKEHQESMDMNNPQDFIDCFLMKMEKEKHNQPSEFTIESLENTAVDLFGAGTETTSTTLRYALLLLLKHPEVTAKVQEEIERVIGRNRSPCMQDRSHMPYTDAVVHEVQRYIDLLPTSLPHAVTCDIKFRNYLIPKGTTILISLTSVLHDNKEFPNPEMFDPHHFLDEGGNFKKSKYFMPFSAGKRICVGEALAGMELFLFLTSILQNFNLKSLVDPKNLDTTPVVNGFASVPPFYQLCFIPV

## Nc1ccccc1Nc1cc(-c2cccc(Cl)c2)nn1-c1ccccc1
[1]
  EC50: 4.26 µM (active)
[2]
  EC50: > 60 µM (inconclusive)

## CC(C)C[C@H](NC(=O)c1[nH]cnc1C(=O)N1CCc2ccccc2C1)C(=O)OCc1ccccc1
[3]
  EC50: 9.76 µM (active)
[4]
  EC50: > 150 µM (not active)
[5]
  EC50: > 150 µM (not active)

## Cc1cccc(CN2CCN(C(C)C(=O)NC(C)c3ccccc3)CC2)c1 (stereo unspecified)
[6]
  IC50: 84.2 µM (active)

## CS(=O)(=O)Nc1cccc(-c2nc(NCc3cccs3)c3ccccc3n2)c1
[7]
  AC50: 1.26 µM (inconclusive)

## Cc1ccc(Cn2cccc(NC(=O)NC3CCCCC3)c2=O)cc1
[8]
  AC50: 15.8 µM (inconclusive)
[7]
  AC50: 2.51 µM (inconclusive)

## COc1ccc2[nH]c(C(=O)N3CCCN(Cc4ccc(F)cc4)CC3)cc2c1
[1]
  EC50: 0.23 µM (active)
[2]
  EC50: > 60 µM (not active)

## Cc1nc(N2CCCCC2)c2c(C)c(C(=O)Nc3cccc(C(F)(F)F)c3)sc2n1
[1]
  EC50: 1.54 µM (active)
[2]
  EC50: > 60 µM (not active)

## OC[C@@H](O)[C@@H](O)[C@@H](O)[C@@H](O)c1nc2cc(Cl)ccc2[nH]1
[8]
  AC50: 6.31 µM (inconclusive)

## Cc1ccccc1N=C(S)N1CCCC(c2nc3ccccc3[nH]2)C1 (stereo unspecified)
[1]
  EC50: 1.28 µM (active)
[2]
  EC50: > 60 µM (not active)

## O=C(NC(=S)N1CCN(c2ccc(O)cc2)CC1)c1ccco1
[6]
  IC50: 33.1 µM (active)

## COC(=O)[C@@H]1[C@@H](O)[C@]2(O)c3ccccc3O[C@]2(c2ccccc2)[C@H]1c1ccccc1
[9]; read-out: AC50
  AC50: 0.316 µM (inconclusive)
[7]
  AC50: 0.0794 µM (inconclusive)

## CC1CC(C)(C)Nc2ccc(N=O)cc21 (stereo unspecified)
[1]
  EC50: 2.29 µM (active)
[2]
  EC50: 3.13 µM (active)

## CCC(CC)NC(=O)c1oc2ccccc2c1COc1ccccc1
[3]
  EC50: 9.43 µM (active)
[4]
  EC50: 10.6 µM (active)
[5]
  EC50: 17 µM (active)

## Cc1ccc(-c2cc(C(=O)N3CCN(c4ccccc4O)CC3)c3ccccc3n2)cc1
[3]
  EC50: 5.39 µM (active)
[4]
  EC50: > 150 µM (not active)
[5]
  EC50: 26.4 µM (active)

## O=C(c1cccc(F)c1)N1CCC2(CCCN(c3ccccc3)C2)CC1
[8]
  AC50: 15.8 µM (inconclusive)

## COc1ccc(NC(=O)c2cc(-c3cc(C)cc(C)c3O)[nH]n2)cc1Cl
[3]
  EC50: 2.41 µM (active)
[5]
  EC50: 3.07 µM (active)

## Cc1ccc(NCc2ccccc2O)cc1C
[6]
  IC50: 118 µM (active)

## COc1ccc(OC)c2c(C)c(C)[nH]c12
[6]
  IC50: 29.5 µM (active)

## COc1cc(/C=C\c2ccc(OC)cc2OC)cc(OC)c1
[9]
  AC50: inconclusive

## Cc1ccccc1OCC(O)Cn1c(NCc2ccccc2)nc2c1c(=O)[nH]c(=O)n2C (stereo unspecified)
[7]
  AC50: 5.62 µM (inconclusive)

## COc1ccc(C2CC(c3ccccc3)=NN2C(=O)COC(=O)c2cccc(S(=O)(=O)N3CCOCC3)c2)cc1 (stereo unspecified)
[1]
  EC50: 3.37 µM (active)
[2]
  EC50: > 30 µM (not active)

## Cc1cccc(C(=O)NCC(=O)N2CCOCC2)c1
[3]
  EC50: > 150 µM (not active)
[4]
  EC50: > 150 µM (not active)
[5]
  EC50: > 150 µM (not active)

## COc1ccc(C2=NCC(CSc3nnc(-c4ccc5c(c4)OCO5)o3)S2)cc1 (stereo unspecified)
[1]
  EC50: 0.62 µM (active)
[2]
  EC50: > 60 µM (not active)

## Cn1cc(-c2nc3cnc(Oc4ccccc4)nc3n(Cc3cccs3)c2=O)c2ccccc21
[8]
  AC50: 3.16 µM (inconclusive)

## CCN(CC)c1ccc(/C=C2/C(=O)NC(=O)N(Cc3ccco3)C2=O)cc1
[6]
  IC50: 126 µM (active)

## CC(=O)N(CCC(Cc1ccccc1)c1ccc2c(c1)OCO2)Cc1ccc(Cl)cc1 (stereo unspecified)
[3]
  EC50: 7.09 µM (active)
[4]
  EC50: 58.5 µM (active)
[5]
  EC50: 12.4 µM (active)
